For data set [1], the system named is HepG2 cells. Put plainly: ATP content (CellTiter-Glo). Format: cell-based, human. Particulars: HepG2, 24 h exposure. As for the experimental part:
The ATP content was assessed with the CellTiter-Glo Luminescent Cell Viability Assay (Promega, Dübendorf, Switzerland). Briefly, HepG2 cells were seeded in a 96-well plate at a density of 25,000 cells per well. The following day, the cells were treated with 100 μl of the test substances dissolved in medium (0.25, 0.5, 1.0, and 2.0 mM of each drug, and additionally, 0.1 mM of 4-fluoroamphetamine and 4-chloroamphetamine). Triton X-100 (0.5%) was chosen as positive control to induce cell lysis. After 24 h incubation, 50 μl of the supernatant was discarded, and 50 μl of CellTiter-Glo reagent was added to each well. The plate was then shaken for 15 min at room temperature to induce cell lysis. Thereafter, luminescence was measured with a M200 Pro Infinity plate reader (Tecan, Männedorf, Switzerland) and compared to medium control.
(§1) All statistical analyses were performed using GraphPad Prism 7.0c (GraphPad Software, La Jolla, CA, USA). For toxicology assays, differences between control and test drugs were calculated with ANOVA followed by Dunett’s test. p below 0.05 was considered statistically significant. Monoamine uptake data were fit by nonlinear regression to variable slope sigmoidal dose-response curves to assess IC50 values.

Data set [2] deals with T1, human DAT (Homo sapiens, UniProt Q01959).
T1 construct: expressed in transfected cells; host or cells: HEK 293 (stably transfected)
T1 sequence (Q01959 whole entry): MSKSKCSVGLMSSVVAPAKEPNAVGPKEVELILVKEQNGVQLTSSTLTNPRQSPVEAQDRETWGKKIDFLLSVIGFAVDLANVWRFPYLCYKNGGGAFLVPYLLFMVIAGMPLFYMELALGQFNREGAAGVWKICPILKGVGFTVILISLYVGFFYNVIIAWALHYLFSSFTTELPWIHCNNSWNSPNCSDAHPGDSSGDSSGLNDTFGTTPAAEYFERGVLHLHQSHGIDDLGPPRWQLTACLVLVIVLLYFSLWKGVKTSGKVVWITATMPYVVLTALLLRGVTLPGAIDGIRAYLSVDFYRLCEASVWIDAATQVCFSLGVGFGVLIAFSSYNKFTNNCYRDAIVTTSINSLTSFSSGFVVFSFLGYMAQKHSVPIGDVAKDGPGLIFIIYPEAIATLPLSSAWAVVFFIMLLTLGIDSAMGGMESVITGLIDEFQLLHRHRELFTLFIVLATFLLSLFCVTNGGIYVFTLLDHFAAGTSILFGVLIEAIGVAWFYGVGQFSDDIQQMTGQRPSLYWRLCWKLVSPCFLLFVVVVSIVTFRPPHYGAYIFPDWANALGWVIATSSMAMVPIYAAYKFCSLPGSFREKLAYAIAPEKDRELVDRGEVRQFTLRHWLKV
Put plainly: Dopamine uptake inhibition in hDAT-transfected HEK 293 cells. Format: cell-based.

The subject of data set [3] is HepG2 cells. Put plainly: Cell membrane integrity (ToxiLight BioAssay). The data set is classed as cell-based, human. Particulars: HepG2, 24 h exposure; tested up to 2 mM. As for the experimental part: Cell membrane integrity loss was assessed with the ToxiLight BioAssay Kit (Lonza, Basel, Switzerland) as a marker of cytotoxicity. Briefly, HepG2 cells were seeded in a 96-well plate at a density of 25,000 cells per well. The following day, the cells were treated with 100 μl of the compounds of interest dissolved in medium (0.25, 0.5, 1.0, and 2.0 mM of each drug, and additionally, 0.1 mM of 4-fluoroamphetamine and 4-chloroamphetamine). Triton X-100 (0.5%) was chosen as positive control to induce cell lysis. After 24 h, 50 μl of the ToxiLight assay buffer was added to 20 μl of the supernatant of the drug treatments. After 5 min incubation under shaking, luminescence was measured with a M200 Pro Infinity plate reader (Tecan, Männedorf, Switzerland) and compared to medium control. The amount of viable cells (no cell membrane integrity loss) was calculated in relation to untreated cells and cells lysed with Triton X-100, which were determined to represent 100% and 0% viable cells, respectively.
as §1

Data set [4] deals with HepG2 cells. Nature of the data set: Mechanisms of cell death (annexin V / propidium iodide flow cytometry). The data set is classed as cell-based, human. Conditions: HepG2, 24 h exposure; for Main mechanism of cell death: 4-chloroamphetamine at 0.5 mM; for Concentration causing significant reduction in cell viability (annexin V staining): highest concentration 2 mM.
Description: Annexin V, a Ca^2+-dependent phospholipid-binding protein that has a high affinity for phosphatidylserine, was used to determine the percentage of apoptotic cells. Phosphatidylserine is located in the inner cytoplasmic surface of intact cell membranes; in apoptotic cells, phosphatidylserine is translocated to the outer leaflet of the plasma membrane where annexin V binds to it. To assess the percentage of dead cells composed of necrotic and late apoptotic cells, propidium iodide, a red fluorescent dye not permeable to live and apoptotic cells but able to stain permeable necrotic cells by binding to the nucleic acid in the cell, was used. Briefly, 100,000 HepG2 cells per well were seeded in a 48-well plate and cultured overnight. The following day, the cells were treated with 250 μl of the compounds of interest dissolved in medium at concentrations selected based on ATP depletion and cell membrane disruption. Doxorubicin (0.5 μM) was included as positive control. After incubation for 24 h, the cells were harvested with 0.05% trypsin and washed with phosphate buffered saline (pH = 7.4). […] After 15 min incubation in the dark, the cells were analyzed with a CytoFLEX flow cytometer (Beckman Coulter, IN, USA) gating for 10,000 cells.
as §1

Data set [5] relates to HepG2 cells. Nature of the data set: Mitochondrial superoxide production (MitoSOX). Conditions: HepG2, 24 h exposure. Format: cell-based, human. As for the experimental part: Briefly, HepG2 cells were seeded in a 96-well plate at a density of 25,000 cells per well. The following day, the cells were treated with 100 μl of the test substances dissolved in medium (0.25, 0.5, 1.0, and 2.0 mM of each drug, and additionally, 0.1 mM of 4-fluoroamphetamine and 4-chloroamphetamine). Amiodarone (50 μM) was included as positive control. After 24 h incubation, 100 μl of MitoSOX reagent (2.5 μM) was added to each well for 10 min at 37°C protected from light. After that, fluorescence was measured at 510/580 nm with a M200 Pro Infinity plate reader (Tecan, Männedorf, Switzerland). The protein content was assessed with the Pierce BCA Protein Assay Kit (Thermo Fisher Scientific, Basel, Switzerland).
as §1

Data set [6] has as its target T2, human SERT (Homo sapiens, UniProt P31645).
T2 construct: expressed in transfected cells; host or cells: HEK 293 (stably transfected)
Put plainly: Serotonin uptake inhibition in hSERT-transfected HEK 293 cells. Format: cell-based.

For data set [7], the target named is T3, human NET (Homo sapiens, UniProt P23975).
T3 construct: expressed in transfected cells; host or cells: HEK 293 (stably transfected)
T3 sequence (P23975 whole entry): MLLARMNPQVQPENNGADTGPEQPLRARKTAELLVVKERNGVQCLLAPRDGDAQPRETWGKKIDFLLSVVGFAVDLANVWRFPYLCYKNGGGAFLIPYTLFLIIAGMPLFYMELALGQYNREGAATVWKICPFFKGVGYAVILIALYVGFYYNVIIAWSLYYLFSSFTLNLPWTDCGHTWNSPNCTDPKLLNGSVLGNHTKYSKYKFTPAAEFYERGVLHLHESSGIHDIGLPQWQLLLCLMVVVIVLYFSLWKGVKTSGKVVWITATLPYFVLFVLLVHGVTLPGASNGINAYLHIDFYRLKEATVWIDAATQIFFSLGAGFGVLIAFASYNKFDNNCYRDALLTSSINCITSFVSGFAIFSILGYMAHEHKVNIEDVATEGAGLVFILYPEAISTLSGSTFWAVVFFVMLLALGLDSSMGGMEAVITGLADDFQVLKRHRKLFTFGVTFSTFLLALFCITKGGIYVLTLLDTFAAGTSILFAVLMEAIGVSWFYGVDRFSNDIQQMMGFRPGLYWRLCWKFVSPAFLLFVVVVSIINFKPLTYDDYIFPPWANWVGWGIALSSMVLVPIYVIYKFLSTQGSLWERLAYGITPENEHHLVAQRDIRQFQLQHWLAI
Nature of the data set: Norepinephrine uptake inhibition in hNET-transfected HEK 293 cells. Format: cell-based.

Data set [8] relates to HepG2 cells. Nature of the data set: Cellular oxygen consumption rate (Seahorse XF24). Particulars: HepG2, 24 h exposure; for Concentration decreasing maximal respiratory capacity: OCR after FCCP; for Concentration disrupting cellular respiration: investigated range ≤2 mM. The data set is classed as cell-based, human. As for the experimental part: The cellular oxygen consumption rate (OCR) was measured with a Seahorse XF24 Analyzer (Seahorse Biosciences, North Billerica, MA, USA). Briefly, HepG2 cells were seeded in a poly-D-lysine coated Seahorse XF24 cell culture microplate at a density of 100,000 cells per well. The following day, the cells were treated with the compounds of interest dissolved in 100 μl culture medium. After 24 h incubation, the medium was removed, and the cells were washed twice with pre-warmed and unbuffered DMEM (4 mM L-glutamate, 1 mM pyruvate, 1 g/L glucose, 63.3 mM sodium chloride, pH 7.4). Thereafter, 750 μl of unbuffered DMEM was added to each well, and the plate was incubated in a CO2 free incubator for 40 min at 37°C. The ports of the XF24 assay cartridge were then loaded with oligomycin, trifluoromethoxy carbonylcyanide phenylhydrazone (FCCP), or rotenone at a final assay concentration of 1 μM, and the cartridge was loaded into the Seahorse XF24 Analyzer. First, oligomycin was injected to inhibit mitochondrial phosphorylation, allowing a quantification of proton leak. Second, oxidative phosphorylation was uncoupled from ATP synthesis by FCCP to determine the maximal respiratory capacity of the cells. Third, rotenone was injected to inhibit complex I of the electron transport chain in order to assess for extramitochondrial respiration, which was then subtracted from basal, leak, and maximal respiration. The protein content was determined using sulforhodamine B staining. The cells were fixed with 100 μl trichloroacetic acid (50% [w/v]), added to each well of the assay plate. After 1 h at 4°C, the cells were washed with deionized water and stained with sulforhodamine B (0.4% [w/v], in 1% [v/v] acetic acid). After 20 min, the cells were rapidly washed with 1% (v/v) acetic acid, and the incorporated dye was solubilized with 100 μl of 10 mM TRIS base. The absorbance was then measured at 490 nm.
as §1

The structures appear in SMILES notation. Bounds are passed on as bounds.

T2 sequence (P31645 whole entry): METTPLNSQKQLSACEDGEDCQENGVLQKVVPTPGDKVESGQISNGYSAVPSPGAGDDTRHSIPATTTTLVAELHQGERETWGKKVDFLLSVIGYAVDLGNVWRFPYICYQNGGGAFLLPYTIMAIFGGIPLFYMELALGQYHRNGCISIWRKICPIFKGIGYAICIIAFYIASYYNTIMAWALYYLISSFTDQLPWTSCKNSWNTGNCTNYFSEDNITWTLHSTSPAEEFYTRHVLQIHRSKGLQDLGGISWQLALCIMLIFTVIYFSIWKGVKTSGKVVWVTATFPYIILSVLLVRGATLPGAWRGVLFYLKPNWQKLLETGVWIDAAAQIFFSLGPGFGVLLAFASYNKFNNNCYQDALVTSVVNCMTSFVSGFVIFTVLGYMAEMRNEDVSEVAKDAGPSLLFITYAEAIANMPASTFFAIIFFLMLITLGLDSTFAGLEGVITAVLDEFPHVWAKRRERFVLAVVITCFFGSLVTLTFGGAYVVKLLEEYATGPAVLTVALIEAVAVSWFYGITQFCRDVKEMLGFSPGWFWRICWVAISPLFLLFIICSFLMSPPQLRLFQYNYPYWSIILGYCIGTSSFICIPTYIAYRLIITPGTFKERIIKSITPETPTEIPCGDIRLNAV

As to `CC(N)Cc1ccc(Cl)cc1` (centres unmarked) [4-Chloroamphetamine], in data set [1], the “Concentration at which significant depletion of ATP was observed” value was 100 µM. In data set [1] (0.5 mM), the “ATP content at 0.5 mM” value is reported as “almost complete ATP depletion”. Moreover, in data set [2], the DAT/SERT ratio is on record as 0.14 (0.07–0.25) and inhibition was half-maximal at 3600 nM (IC50). Further, in data set [3], the “Concentration causing significant cell membrane integrity loss” value stood at 500 µM. In data set [4], the “Main mechanism of cell death” value is “necrosis” and the “Concentration causing significant reduction in cell viability (annexin V staining)” value is 500 µM. For the same compound, the “Concentration at which significant increase in mitochondrial superoxide was observed” value in data set [5] came to 500 µM. Also, half-maximal inhibition in data set [6] (IC50) was put at 490 nM. Moreover, the midpoint of inhibition in data set [7], the IC50, lay at 320 nM. In data set [8], the “Concentration decreasing maximal respiratory capacity” value came to 100 µM.

For `CNC(C)C(=O)c1ccc(Cl)cc1` (centres unmarked) [4-Chloromethcathinone, 4-chloromethcathinone], the “Concentration at which significant depletion of ATP was observed” value in data set [1] worked out at 1000 µM. Moreover, in data set [2], the DAT/SERT ratio is listed as 0.45 (0.25–0.83) and inhibition was half-maximal at 5100 nM (IC50). Further, in data set [3], the “Concentration causing significant cell membrane integrity loss” value worked out at 2000 µM. Besides, in data set [4], the “Main mechanism of cell death” value is given as “Apoptosis” and the “Concentration causing significant reduction in cell viability (annexin V staining)” value stood at 1000 µM. Besides, the “Concentration at which significant increase in mitochondrial superoxide was observed” value in data set [5] worked out at 1000 µM. In data set [6], this compound gave a concentration for half-maximal inhibition (IC50) of 2300 nM. In addition, in data set [7], the IC50 is 430 nM. For the same compound, the “Concentration showing signs of uncoupling of cellular respiration from ATP synthesis” value in data set [8] (OCR) was determined as 1000 µM. Further, in data set [8], the “Concentration decreasing maximal respiratory capacity” value is 1000 µM.

For the compound `CC(N)Cc1ccc(F)cc1` (centres unmarked) [4-Fluoroamphetamine, 4-fluoroamphetamine], the “Concentration at which significant depletion of ATP was observed” value in data set [1] was 500 µM. In data set [2], the DAT/SERT ratio was 3.6 (1.9–6.5). Moreover, the IC50 came out at 3900 nM in data set [2], 14000 nM in data set [6] and 150 nM in data set [7]. The “Concentration causing significant cell membrane integrity loss” value in data set [3] was 2000 µM. For the same compound, the “Main mechanism of cell death” value in data set [4] is reported as “Apoptosis”. Further, in data set [4], the “Concentration causing significant reduction in cell viability (annexin V staining)” value stood at 1000 µM. Moreover, the “Concentration at which significant increase in mitochondrial superoxide was observed” value in data set [5] turned out to be 1000 µM. Besides, the “Concentration decreasing maximal respiratory capacity” value in data set [8] worked out at 1000 µM.

For `CNC(C)C(=O)c1ccc(F)cc1` (centres unmarked) [4-Fluoromethcathinone, 4-fluoromethcathinone], the “Concentration at which significant depletion of ATP was observed” value in data set [1] worked out at 1000 µM. Besides, in data set [2], the DAT/SERT ratio is reported as 5.6 (3.3–9.4) and the 50% inhibitory concentration (IC50) worked out at 6600 nM. Further, the “Concentration causing significant cell membrane integrity loss” value in data set [3] was more than 2000 µM. In data set [4], the “Amount of necrotic and apoptotic cells versus control at 2 mM” value is “did not significantly differ from control incubations”; the “Concentration causing significant reduction in cell viability (annexin V staining)” value is more than 2000 µM. In addition, the “Concentration at which significant increase in mitochondrial superoxide was observed” value in data set [5] was determined as 2000 µM. Besides, in data set [6], the half-maximal inhibitory concentration (IC50) was 37000 nM. The half-inhibitory concentration (IC50) in data set [7] was found to be 350 nM. Moreover, the “Concentration disrupting cellular respiration” value in data set [8] is more than 2000 µM.

Consider `CC(N)Cc1ccccc1` (centres unmarked) [Amphetamine], for which the “Concentration at which significant depletion of ATP was observed” value in data set [1] came to 1000 µM. Besides, the “Concentration causing significant cell membrane integrity loss” value in data set [3] was found to be 2000 µM. Moreover, in data set [4], the “Amount of necrotic and apoptotic cells versus control at 2 mM” value is “did not significantly differ from control incubations”. Moreover, in data set [5], the “Concentration at which significant increase in mitochondrial superoxide was observed” value is 2000 µM.

As for `CNC(C)C(=O)c1ccccc1` (centres unmarked) [Methcathinone, methcathinone], in data set [1], the “Concentration at which significant depletion of ATP was observed” value is 2000 µM. Besides, in data set [2], the DAT/SERT ratio is on record as 34 (20–57) and it took 1600 nM to reach half-maximal inhibition (IC50). In data set [3], the “Concentration causing significant cell membrane integrity loss” value is more than 2000 µM. Moreover, in data set [4], the “Amount of necrotic and apoptotic cells versus control at 2 mM” value is on record as “did not significantly differ from control incubations”; the “Concentration causing significant reduction in cell viability (annexin V staining)” value was more than 2000 µM. Further, in data set [5], the “Concentration at which significant increase in mitochondrial superoxide was observed” value came out at 2000 µM. 54000 nM corresponded to half-maximal inhibition in data set [6] (IC50). The concentration for half-maximal inhibition (IC50) in data set [7] came to 120 nM. The “Concentration disrupting cellular respiration” value in data set [8] was more than 2000 µM.

For the origin of these results see publication PMC6491784, “Para-Halogenation Affects Monoamine Transporter Inhibition Properties and Hepatocellular Toxicity of Amphetamines and Methcathinones” (Frontiers in Pharmacology, 2019).
